A word on the AC50: it is the midpoint of the concentration-response curve, whichever way the signal moves.

SMILES strings stand for the structures.

The assay addresses T1, POLγA:A467T (Homo sapiens, UniProt P54098, A467T).
T1 sequence (P54098 1-1239 A467T): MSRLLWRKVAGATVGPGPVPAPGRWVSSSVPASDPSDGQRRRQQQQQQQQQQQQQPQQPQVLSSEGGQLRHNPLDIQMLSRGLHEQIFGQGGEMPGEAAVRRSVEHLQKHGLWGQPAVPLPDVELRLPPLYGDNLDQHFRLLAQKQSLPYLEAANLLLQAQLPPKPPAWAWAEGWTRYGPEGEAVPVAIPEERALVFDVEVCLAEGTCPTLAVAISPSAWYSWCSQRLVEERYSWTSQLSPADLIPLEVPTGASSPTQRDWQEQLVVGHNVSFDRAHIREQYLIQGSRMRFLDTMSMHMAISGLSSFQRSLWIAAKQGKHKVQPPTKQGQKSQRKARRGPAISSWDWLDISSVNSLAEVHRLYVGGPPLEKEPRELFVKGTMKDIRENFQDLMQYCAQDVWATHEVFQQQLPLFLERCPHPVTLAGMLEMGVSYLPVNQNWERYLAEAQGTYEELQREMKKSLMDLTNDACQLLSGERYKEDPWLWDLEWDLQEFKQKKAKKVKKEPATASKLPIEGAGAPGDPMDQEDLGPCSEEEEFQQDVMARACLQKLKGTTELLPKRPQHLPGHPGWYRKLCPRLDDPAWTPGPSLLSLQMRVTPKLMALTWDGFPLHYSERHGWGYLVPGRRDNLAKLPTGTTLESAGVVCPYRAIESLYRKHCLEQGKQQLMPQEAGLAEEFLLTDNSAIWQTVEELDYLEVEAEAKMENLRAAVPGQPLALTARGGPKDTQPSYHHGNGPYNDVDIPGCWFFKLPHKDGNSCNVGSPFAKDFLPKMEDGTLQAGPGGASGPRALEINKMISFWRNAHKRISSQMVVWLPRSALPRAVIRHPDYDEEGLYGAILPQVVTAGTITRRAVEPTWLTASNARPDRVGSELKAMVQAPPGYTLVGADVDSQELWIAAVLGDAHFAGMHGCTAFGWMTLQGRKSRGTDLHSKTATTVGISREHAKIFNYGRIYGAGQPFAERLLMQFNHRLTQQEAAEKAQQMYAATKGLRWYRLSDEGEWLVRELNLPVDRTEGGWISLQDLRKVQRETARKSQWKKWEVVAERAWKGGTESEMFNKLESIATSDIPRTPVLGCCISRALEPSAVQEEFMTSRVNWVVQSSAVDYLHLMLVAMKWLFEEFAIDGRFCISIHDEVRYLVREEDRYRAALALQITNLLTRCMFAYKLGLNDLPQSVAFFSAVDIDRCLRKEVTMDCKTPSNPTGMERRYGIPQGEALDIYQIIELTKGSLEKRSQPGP
T1 sequence (Q9UHN1 1-485 partner): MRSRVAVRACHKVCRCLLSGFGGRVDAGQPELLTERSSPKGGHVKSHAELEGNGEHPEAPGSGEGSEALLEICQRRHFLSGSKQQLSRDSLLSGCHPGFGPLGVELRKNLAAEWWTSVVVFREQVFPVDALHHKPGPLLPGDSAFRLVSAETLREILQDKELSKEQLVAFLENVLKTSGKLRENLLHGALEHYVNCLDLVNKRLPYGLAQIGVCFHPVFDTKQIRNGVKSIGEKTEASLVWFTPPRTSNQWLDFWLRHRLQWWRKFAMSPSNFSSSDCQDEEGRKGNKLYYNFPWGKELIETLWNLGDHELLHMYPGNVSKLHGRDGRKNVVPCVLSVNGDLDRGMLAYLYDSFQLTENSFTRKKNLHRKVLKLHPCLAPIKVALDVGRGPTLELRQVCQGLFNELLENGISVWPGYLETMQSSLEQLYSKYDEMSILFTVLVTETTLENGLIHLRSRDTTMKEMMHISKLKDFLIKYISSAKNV
The experiment in a line: DNA polymerization assay, POLγA:A467T mutant. The assay is classed as biochemical. As to conditions: stimulation of polymerase activity, primed M13mp18 ssDNA, 37° C. 2 hours; read-out: A467T AC50.
Turning to `Cc1cc(S(=O)(=O)Nc2cccc(C(=O)N3CCN(CCO)CC3)c2)c(C)cc1Cl` [Example 55, 4-chloro-N-(3-(4-(2-hydroxyethyl)piperazine-1-carbonyl)phenyl)-2,5-dimethylbenzenesulfonamide], the concentration at half-maximal activity (AC50) was above 100 µM.
Turning to `Cc1cc(-c2cccc(NS(=O)(=O)c3cc(C)c(Cl)cc3C)c2)n[nH]1` [Example 66, 4-chloro-2,5-dimethyl-N-(3-(5-methyl-1H-pyrazol-3-yl)phenyl)benzenesulfonamide], the half-maximal activity concentration (AC50) was found to be 11 µM.
The same measure for `Cc1ccc(C)c(S(=O)(=O)Nc2cccc(C(=O)N(C)C)c2)c1` [Example 25, 3-((2,5-dimethylphenyl)sulfonamido)-N,N-dimethylbenzamide]: above 100 µM; for `Cc1cc(S(=O)(=O)Nc2csc(-c3ccccn3)n2)c(C)cc1Cl` [Example 173, 4-chloro-2,5-dimethyl-N-(2-(pyridin-2-yl)thiazol-4-yl)benzenesulfonamide]: 2 µM.
The same measure for `Cc1cc(S(=O)(=O)Nc2nc(-c3ccccc3)co2)c(C)cc1Cl` [Example 157, 4-chloro-2,5-dimethyl-N-(4-phenyloxazol-2-yl)benzenesulfonamide]: above 100 µM.
For `Cc1cc(S(=O)(=O)Nc2cccc(C(=O)NCCO)c2)c(C)cc1Cl` [Example 53, 3-((4-chloro-2,5-dimethylphenyl)sulfonamido)-N-(2-hydroxyethyl)benzamide], the concentration at half-maximal activity (AC50) is above 100 µM.
Take `Cc1ccc(C)c(S(=O)(=O)Nc2cccc(C(=O)N3CCCCCC3)c2)c1` [Example 32, N-(3-(azepane-1-carbonyl)phenyl)-2,5-dimethylbenzenesulfonamide]: the AC50 was above 100 µM.
Consider `Cc1csc(-c2cccc(NS(=O)(=O)c3cc(C)c(Cl)cc3C)c2)n1` [Example 20, 4-chloro-2,5-dimethyl-N-(3-(4-methylthiazol-2-yl)phenyl)benzenesulfonamide], for which the half-maximal activity concentration (AC50) came to 4 µM.
As for `Cc1cc(S(=O)(=O)Nc2cccc(-c3cc[nH]n3)c2)c(C)cc1Cl` [Example 68, N-(3-(1H-pyrazol-3-yl)phenyl)-4-chloro-2,5-dimethylbenzenesulfonamide], the half-maximal activity concentration (AC50) amounted to 16 µM.
The same measure for `Cc1ccc(C)c(S(=O)(=O)Nc2cncc(C(=O)N3CCOCC3)c2)c1` [Example 38, 2,5-dimethyl-N-(5-(morpholine-4-carbonyl)pyridin-3-yl)benzenesulfonamide]: above 100 µM; for `Cc1cc(S(=O)(=O)Nc2csc(C(=O)N3CCCC3)n2)c(C)cc1Cl` [Example 166, 4-chloro-2,5-dimethyl-N-(2-(pyrrolidine-1-carbonyl)thiazol-4-yl)benzenesulfonamide]: 2 µM.
The same measure for `Cc1cc2cc(NS(=O)(=O)c3cc(C)c(Cl)cc3C)ccc2[nH]1` [Example 184, 4-chloro-2,5-dimethyl-N-(2-methyl-1H-indol-5-yl)benzenesulfonamide]: 33 µM; for `COCCN(C)C(=O)c1cccc(NS(=O)(=O)c2cc(C)c(Cl)cc2C)c1` [Example 58, 3-((4-chloro-2,5-dimethylphenyl)sulfonamido)-N-(2-methoxyethyl)-N-methylbenzamide]: above 100 µM; for `Cc1cc(S(=O)(=O)Nc2cccc(C(=O)N[C@H](C)CO)c2)c(C)cc1Cl` [Example 51, (R)-3-((4-chloro-2,5-dimethylphenyl)sulfonamido)-N-(1-hydroxypropan-2-yl)benzamide]: above 100 µM.
The same measure for `Cc1cc(S(=O)(=O)Nc2nc(-c3ccccc3)n(C)n2)c(C)cc1Cl` [Example 180, 4-chloro-2,5-dimethyl-N-(1-methyl-5-phenyl-1H-1,2,4-triazol-3-yl)benzenesulfonamide]: above 10 µM.
Consider `Cc1ccc(C)c(S(=O)(=O)Nc2ccc(C(=O)NCC3CC3)cc2)c1` [Example 40, N-(cyclopropylmethyl)-4-((2,5-dimethylphenyl)sulfonamido)benzamide], for which the concentration at half-maximal activity (AC50) is above 100 µM.
For `N#CC1CSCCN1C(=O)c1cccc(NS(=O)(=O)c2cccc(C(F)(F)F)c2)c1` (stereo not shown) [Example 35, N-(3-(3-cyanothiomorpholine-4-carbonyl)phenyl)-3-(trifluoromethyl)benzenesulfonamide], the half-maximal activity concentration (AC50) was above 100 µM.
The same measure for `Cc1cc(S(=O)(=O)Nc2cn(-c3ccccc3)cn2)c(C)cc1Cl` [Example 169, 4-chloro-2,5-dimethyl-N-(1-phenyl-1H-imidazol-4-yl)benzenesulfonamide]: above 100 µM; for `Cc1cc(S(=O)(=O)Nc2ccc3ccn(C(C)C)c3c2)c(C)cc1Cl` [Example 69, 4-chloro-N-(1-isopropyl-1H-indol-6-yl)-2,5-dimethylbenzenesulfonamide]: 17 µM; for `Cc1cc(S(=O)(=O)Nc2cccc(C(=O)N3CCNCC3)c2)c(C)cc1Cl` [Example 46, 4-chloro-2,5-dimethyl-N-(3-(piperazine-1-carbonyl)phenyl)benzenesulfonamide]: above 100 µM.
As to `Cc1ccc(C)c(S(=O)(=O)Nc2cccc(C(=O)NCc3ccccc3)c2)c1` [Example 28, N-benzyl-3-((2,5-dimethylphenyl)sulfonamido)benzamide], the AC50 was above 100 µM.
The same measure for `O=S(=O)(Nc1cccc(-c2nccs2)c1)c1ccc(Cl)cc1` [Example 59, 4-chloro-N-(3-(thiazol-2-yl)phenyl)benzenesulfonamide]: above 100 µM.
The same measure for `Cc1cc(S(=O)(=O)Nc2csc(-c3ccncc3)n2)c(C)cc1Cl` [Example 176, 4-chloro-2,5-dimethyl-N-(2-(pyridin-4-yl)thiazol-4-yl)benzenesulfonamide]: above 100 µM; for `Cc1cc(S(=O)(=O)Nc2cccc3c2CC(=O)N3)c(C)cc1Cl` [Example 36, 4-chloro-2,5-dimethyl-N-(2-oxoindolin-4-yl)benzenesulfonamide]: above 100 µM.
On to `Cc1cc(S(=O)(=O)Nc2cccc(C(=O)N(C)CCO)c2)c(C)cc1Cl` [Example 56, 3-((4-chloro-2,5-dimethylphenyl)sulfonamido)-N-(2-hydoxyethyl)-N-methylbenzamide], for which the half-maximal activity concentration (AC50) was above 100 µM.
As for `Cc1cc(S(=O)(=O)Nc2csc(C(=O)N3CCC[C@@H]3C)n2)c(C)cc1Cl` [Example 175, (S)-4-chloro-2,5-dimethyl-N-(2-(2-methylpyrrolidine-1-carbonyl)thiazol-4-yl)benzenesulfonamide], the figure is 3 µM; as for `Cc1cc(S(=O)(=O)Nc2csc(C3CCOCC3)n2)c(C)cc1Cl` [Example 167, 4-chloro-2,5-dimethyl-N-(2-(tetrahydro-2H-pyran-4-yl)thiazol-4-yl)benzenesulfonamide], 8 µM; as for `CC(=O)N1CCC(c2nc(NS(=O)(=O)c3cc(C)c(Cl)cc3C)cs2)CC1` [Example 163, N-(2-(1-acetylpiperidin-4-yl)thiazol-4-yl)-4-chloro-2,5-dimethylbenzenesulfonamide], above 100 µM.
Take `Cc1cc(S(=O)(=O)Nc2cnn(-c3ccccc3)n2)c(C)cc1Cl` [Example 171, 4-chloro-2,5-dimethyl-N-(2-phenyl-2H-1,2,3-triazol-4-yl)benzenesulfonamide]: the half-maximal activity concentration (AC50) is above 10 µM.
As for `Cc1cc(S(=O)(=O)Nc2csc(C(=O)N3CCC[C@H]3C)n2)c(C)cc1Cl` [Example 174, (R)-4-chloro-2,5-dimethyl-N-(2-(2-methylpyrrolidine-1-carbonyl)thiazol-4-yl)benzenesulfonamide], the half-maximal activity concentration (AC50) amounted to 2 µM.
As for `Cc1cc(S(=O)(=O)Nc2cccc(C(=O)N3CCC(F)(F)C3)c2)c(C)cc1Cl` [Example 160, 4-chloro-N-(3-(3,3-difluoropyrrolidine-1-carbonyl)phenyl)-2,5-dimethylbenzenesulfonamide], the figure is above 100 µM.

These data come from patent US20260138961A1, “MODULATORS OF MITOCHONDRIAL DNA REPLICATION” (Pretzel Therapeutics, Inc., priority 2022, published 2026).
